One block for each compound: values may come before it.
System: K24384-001-R-PDC complex spheroid growth
Assay: Anticancer human tumor K24384-001-R-PDC patient-derived pancreatic adenocarcinoma cell line growth inhibition [AhR]
Settings: for IC50: curve of first compound; for viability, T/C: stronger effect = lower value
Method in brief: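 Complex tumor spheroids co-cultured with HUVEC and human MSC stroma; AhR antagonists tested in combination with standard-of-care and investigational agents. Top concentration at or near clinical Cmax (else 10 microM), half-log dilutions; growth expressed as percent test/control.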

[1] = second compound 0.1 µM, first compound 0.0316 µM
[2] = second compound 0.1 µM, first compound 0.1 µM
[3] = second compound 0.1 µM, first compound 0.316 µM
[4] = second compound 0.1 µM, first compound 1 µM
[5] = second compound 0.1 µM, first compound 3.16 µM
[6] = second compound 0.1 µM, first compound 10 µM
[7] = second compound 0.316 µM, first compound 0.0316 µM
[8] = second compound 0.316 µM, first compound 0.1 µM
[9] = second compound 0.316 µM, first compound 0.316 µM
[10] = second compound 0.316 µM, first compound 1 µM
[11] = second compound 0.316 µM, first compound 3.16 µM
[12] = second compound 0.316 µM, first compound 10 µM
[13] = second compound 1 µM, first compound 0.0316 µM
[14] = second compound 1 µM, first compound 0.1 µM
[15] = second compound 1 µM, first compound 0.316 µM
[16] = second compound 1 µM, first compound 1 µM
[17] = second compound 1 µM, first compound 3.16 µM
[18] = second compound 1 µM, first compound 10 µM
[19] = second compound 3.16 µM, first compound 0.0316 µM
[20] = second compound 3.16 µM, first compound 0.1 µM
[21] = second compound 3.16 µM, first compound 0.316 µM
[22] = second compound 3.16 µM, first compound 1 µM
[23] = second compound 3.16 µM, first compound 3.16 µM
[24] = second compound 3.16 µM, first compound 10 µM
[25] = second compound 10 µM, first compound 0.0316 µM
[26] = second compound 10 µM, first compound 0.1 µM
[27] = second compound 10 µM, first compound 0.316 µM
[28] = second compound 10 µM, first compound 1 µM
[29] = second compound 10 µM, first compound 3.16 µM
[30] = second compound 10 µM, first compound 10 µM
[31] = second compound 0.1 µM, first compound 0.00949 µM
[32] = second compound 0.1 µM, first compound 0.03 µM
[33] = second compound 0.1 µM, first compound 0.0949 µM
[34] = second compound 0.1 µM, first compound 0.3 µM
[35] = second compound 0.316 µM, first compound 0.00949 µM
[36] = second compound 0.316 µM, first compound 0.03 µM
[37] = second compound 0.316 µM, first compound 0.0949 µM
[38] = second compound 0.316 µM, first compound 0.3 µM
[39] = second compound 1 µM, first compound 0.00949 µM
[40] = second compound 1 µM, first compound 0.03 µM
[41] = second compound 1 µM, first compound 0.0949 µM
[42] = second compound 1 µM, first compound 0.3 µM
[43] = second compound 3.16 µM, first compound 0.00949 µM
[44] = second compound 3.16 µM, first compound 0.03 µM
[45] = second compound 3.16 µM, first compound 0.0949 µM
[46] = second compound 3.16 µM, first compound 0.3 µM
[47] = second compound 10 µM, first compound 0.00949 µM
[48] = second compound 10 µM, first compound 0.03 µM
[49] = second compound 10 µM, first compound 0.0949 µM
[50] = second compound 10 µM, first compound 0.3 µM
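For viability, T/C in this document: percent of DMSO vehicle-treated spheroid viability set as 100%.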

Structure (SMILES): CC1(C)CCC(CN2CCN(c3ccc(C(=O)NS(=O)(=O)c4ccc(NCC5CCOCC5)c([N+](=O)[O-])c4)c(Oc4cnc5[nH]ccc5c4)c3)CC2)=C(c2ccc(Cl)cc2)C1 + Cc1ccccc1N=Nc1ccc(NC(=O)c2ccnn2C)c(C)c1
- IC50 (second compound 0.1 µM): > 10000 nM
- IC50 (second compound 0.316 µM): > 10000 nM
- IC50 (second compound 1 µM): 9660 nM
- IC50 (second compound 3.16 µM): 9750 nM
- IC50 (second compound 10 µM): > 10000 nM
- viability, T/C [1]: 111%
- viability, T/C [2]: 119%
- viability, T/C [3]: 113%
- viability, T/C [4]: 102%
- viability, T/C [5]: 86.5%
- viability, T/C [6]: 52.3%
- viability, T/C [7]: 123%
- viability, T/C [8]: 112%
- viability, T/C [9]: 132%
- viability, T/C [10]: 114%
- viability, T/C [11]: 118%
- viability, T/C [12]: 51.7%
- viability, T/C [13]: 108%
- viability, T/C [14]: 102%
- viability, T/C [15]: 122%
- viability, T/C [16]: 112%
- viability, T/C [17]: 114%
- viability, T/C [18]: 48.1%
- viability, T/C [19]: 111%
- viability, T/C [20]: 107%
- viability, T/C [21]: 114%
- viability, T/C [22]: 112%
- viability, T/C [23]: 112%
- viability, T/C [24]: 48.5%
- viability, T/C [25]: 116%
- viability, T/C [26]: 147%
- viability, T/C [27]: 131%
- viability, T/C [28]: 129%
- viability, T/C [29]: 111%
- viability, T/C [30]: 57.8%

Structure (SMILES): CCN(c1cc(-c2ccc(CN3CCOCC3)cc2)cc(C(=O)NCc2c(C)cc(C)[nH]c2=O)c1C)C1CCOCC1 + Cc1ccccc1N=Nc1ccc(NC(=O)c2ccnn2C)c(C)c1
- IC50 (second compound 0.1 µM): > 3000 nM
- IC50 (second compound 0.316 µM): > 3000 nM
- IC50 (second compound 1 µM): > 3000 nM
- IC50 (second compound 3.16 µM): > 3000 nM
- IC50 (second compound 10 µM): > 3000 nM
- viability, T/C [31]: 116%
- viability, T/C [32]: 114%
- viability, T/C [33]: 124%
- viability, T/C [34]: 113%
- viability, T/C (second compound 0.1 µM, first compound 0.949 µM): 80%
- viability, T/C (second compound 0.1 µM, first compound 3 µM): 125%
- viability, T/C [35]: 131%
- viability, T/C [36]: 126%
- viability, T/C [37]: 135%
- viability, T/C [38]: 112%
- viability, T/C (second compound 0.316 µM, first compound 0.949 µM): 106%
- viability, T/C (second compound 0.316 µM, first compound 3 µM): 91.2%
- viability, T/C [39]: 119%
- viability, T/C [40]: 134%
- viability, T/C [41]: 131%
- viability, T/C [42]: 106%
- viability, T/C (second compound 1 µM, first compound 0.949 µM): 87.3%
- viability, T/C (second compound 1 µM, first compound 3 µM): 87.8%
- viability, T/C [43]: 109%
- viability, T/C [44]: 117%
- viability, T/C [45]: 116%
- viability, T/C [46]: 107%
- viability, T/C (second compound 3.16 µM, first compound 0.949 µM): 130%
- viability, T/C (second compound 3.16 µM, first compound 3 µM): 105%
- viability, T/C [47]: 141%
- viability, T/C [48]: 138%
- viability, T/C [49]: 147%
- viability, T/C [50]: 137%
- viability, T/C (second compound 10 µM, first compound 0.949 µM): 128%
- viability, T/C (second compound 10 µM, first compound 3 µM): 110%

Second part, led by results:

- IC50 (second compound 0.1 µM): > 100 nM
- IC50 (second compound 0.316 µM): > 100 nM
- IC50 (second compound 1 µM): > 100 nM
- IC50 (second compound 3.16 µM): > 100 nM
- IC50 (second compound 10 µM): > 100 nM
Structure (SMILES): Cn1ncnc1C1c2n[nH]c(=O)c3cc(F)cc(c23)NC1c1ccc(F)cc1 (stereo not given) + Cc1ccccc1N=Nc1ccc(NC(=O)c2ccnn2C)c(C)c1
- viability, T/C (second compound 0.1 µM, first compound 0.000316 µM): 100%
- viability, T/C (second compound 0.1 µM, first compound 0.001 µM): 110%
- viability, T/C (second compound 0.1 µM, first compound 0.00316 µM): 110%
- viability, T/C (second compound 0.1 µM, first compound 0.01 µM): 98.2%
- viability, T/C [1]: 79%
- viability, T/C [2]: 96.7%
- viability, T/C (second compound 0.316 µM, first compound 0.000316 µM): 104%
- viability, T/C (second compound 0.316 µM, first compound 0.001 µM): 112%
- viability, T/C (second compound 0.316 µM, first compound 0.00316 µM): 75.8%
- viability, T/C (second compound 0.316 µM, first compound 0.01 µM): 74.3%
- viability, T/C [7]: 67.1%
- viability, T/C [8]: 73.5%
- viability, T/C (second compound 1 µM, first compound 0.000316 µM): 98.2%
- viability, T/C (second compound 1 µM, first compound 0.001 µM): 84.3%
- viability, T/C (second compound 1 µM, first compound 0.00316 µM): 73.3%
- viability, T/C (second compound 1 µM, first compound 0.01 µM): 72.8%
- viability, T/C [13]: 66.3%
- viability, T/C [14]: 66%
- viability, T/C (second compound 3.16 µM, first compound 0.000316 µM): 86.9%
- viability, T/C (second compound 3.16 µM, first compound 0.001 µM): 87.8%
- viability, T/C (second compound 3.16 µM, first compound 0.00316 µM): 87.6%
- viability, T/C (second compound 3.16 µM, first compound 0.01 µM): 67.4%
- viability, T/C [19]: 65.6%
- viability, T/C [20]: 62.8%
- viability, T/C (second compound 10 µM, first compound 0.000316 µM): 91.8%
- viability, T/C (second compound 10 µM, first compound 0.001 µM): 84%
- viability, T/C (second compound 10 µM, first compound 0.00316 µM): 102%
- viability, T/C (second compound 10 µM, first compound 0.01 µM): 86%
- viability, T/C [25]: 82.3%
- viability, T/C [26]: 66.2%

- IC50 (second compound 0.1 µM): 932 nM
- IC50 (second compound 0.316 µM): 928 nM
- IC50 (second compound 1 µM): 732 nM
- IC50 (second compound 3.16 µM): 432 nM
- IC50 (second compound 10 µM): 427 nM
Structure (SMILES): NS(=O)(=O)OCC1CC(n2ccc3c(NC4CCc5ccccc54)ncnc32)CC1O (stereo not given) + Cc1ccccc1N=Nc1ccc(NC(=O)c2ccnn2C)c(C)c1
- viability, T/C [1]: 104%
- viability, T/C [2]: 117%
- viability, T/C [3]: 96.4%
- viability, T/C [4]: 47.4%
- viability, T/C [5]: 23.7%
- viability, T/C [6]: 22.1%
- viability, T/C [7]: 104%
- viability, T/C [8]: 115%
- viability, T/C [9]: 98.8%
- viability, T/C [10]: 46.1%
- viability, T/C [11]: 27.3%
- viability, T/C [12]: 18.3%
- viability, T/C [13]: 117%
- viability, T/C [14]: 127%
- viability, T/C [15]: 83.5%
- viability, T/C [16]: 39.5%
- viability, T/C [17]: 24.2%
- viability, T/C [18]: 22.6%
- viability, T/C [19]: 103%
- viability, T/C [20]: 108%
- viability, T/C [21]: 58.3%
- viability, T/C [22]: 32.7%
- viability, T/C [23]: 24.6%
- viability, T/C [24]: 20.9%
- viability, T/C [25]: 96.2%
- viability, T/C [26]: 104%
- viability, T/C [27]: 59%
- viability, T/C [28]: 30.1%
- viability, T/C [29]: 23.4%
- viability, T/C [30]: 20.3%

- IC50 (second compound 0.1 µM): > 300 nM
- IC50 (second compound 0.316 µM): > 300 nM
- IC50 (second compound 1 µM): > 300 nM
- IC50 (second compound 3.16 µM): > 300 nM
- IC50 (second compound 10 µM): > 300 nM
Structure (SMILES): Nc1ncn(C2CC(O)C(CO)S2)c(=O)n1 (stereo not given) + Cc1ccccc1N=Nc1ccc(NC(=O)c2ccnn2C)c(C)c1
- viability, T/C (second compound 0.1 µM, first compound 0.000949 µM): 92.5%
- viability, T/C (second compound 0.1 µM, first compound 0.003 µM): 103%
- viability, T/C [31]: 105%
- viability, T/C [32]: 79.3%
- viability, T/C [33]: 66%
- viability, T/C [34]: 57.8%
- viability, T/C (second compound 0.316 µM, first compound 0.000949 µM): 111%
- viability, T/C (second compound 0.316 µM, first compound 0.003 µM): 99.7%
- viability, T/C [35]: 88.4%
- viability, T/C [36]: 66.2%
- viability, T/C [37]: 65.8%
- viability, T/C [38]: 54.5%
- viability, T/C (second compound 1 µM, first compound 0.000949 µM): 99.3%
- viability, T/C (second compound 1 µM, first compound 0.003 µM): 82%
- viability, T/C [39]: 68.7%
- viability, T/C [40]: 78.9%
- viability, T/C [41]: 61.5%
- viability, T/C [42]: 58%
- viability, T/C (second compound 3.16 µM, first compound 0.000949 µM): 86.6%
- viability, T/C (second compound 3.16 µM, first compound 0.003 µM): 83.3%
- viability, T/C [43]: 92.6%
- viability, T/C [44]: 63.5%
- viability, T/C [45]: 53.1%
- viability, T/C [46]: 46.9%
- viability, T/C (second compound 10 µM, first compound 0.000949 µM): 100%
- viability, T/C (second compound 10 µM, first compound 0.003 µM): 103%
- viability, T/C [47]: 87.4%
- viability, T/C [48]: 82.8%
- viability, T/C [49]: 72.4%
- viability, T/C [50]: 60.7%

Source: PubChem BioAssay AID1919009 (Molecular Pharmacology Branch, DTP, NCI, 2023)
